Measurements published in patent US20200017495A1, “NOVEL HETEROCYCLIC COMPOUNDS AND THEIR USE IN PREVENTING OR TREATING BACTERIAL INFECTIONS” (priority 2017, published 2020).
Like-named read-outs stand apart in the source and are kept apart here.

Experiments:
Assay in all cases: MIC of compounds alone and combined with antibacterials, broth microdilution (CLSI)
Assay type in all cases: cell-based
[1] = system: Morganella morganii (MMO) isolates; settings: Morganella morganii, read-out: MIC
Method in brief: (§1)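 Broth microdilution in cation-adjusted Mueller-Hinton broth, inoculum 5.10^5 CFU/mL, 16-20 h at 35° C in ambient air, on genotyped isolates. Compound MIC, alone or with an antibacterial, taken visually as lowest concentration preventing growth; antibacterial MIC determined at each compound concentration.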

[2] = system: Providencia rettgeri (PRE) isolates; settings: Providencia rettgeri, read-out: MIC
Method in brief: as §1

[3] = system: Klebsiella pneumoniae (KPN) isolates; settings: Klebsiella pneumoniae, read-out: MIC
Method in brief: as §1

[4] = system: Serratia marcescens (SMA) isolates; settings: Serratia marcescens, read-out: MIC
Method in brief: as §1

[5] = system: Citrobacter koseri (CKR) isolates; settings: Citrobacter koseri, alone, read-out: MIC
Method in brief: as §1

Measured: MIC

O=C1N2CC(n3cccn3)=CC(C2)N1OC(F)(F)C(=O)[O-].[Li+] (stereo not shown) [AF3]
16 µg/mL: [1]; MMO UFR247, alone | [2]; PRE UFR99, alone | [3]; BAA1898, KPN BAA-1898, alone | [3]; KPN 6299, alone | [3]; KPN 110376, alone | [3]; KPN 121206, alone | [3]; KPN 190425, alone | [3]; KPN 260251, alone | [3]; KPN UFR22_O, alone | [3]; KPN UFR27, alone | [3]; KPN UFR28, alone | [3]; KPN UFR42, alone | [3]; KPN UFR68, alone | [3]; KPN UFR81, alone | [3]; KPN UFR219, alone | [3]; strain KPN UFR162, compound alone | [3]; strain KPN UFR163, compound alone | [3]; strain KPN UFR164, compound alone | [3]; strain KPN UFR165, compound alone | [3]; strain KPN UFR168, compound alone | [3]; strain KPN UFR170, compound alone | [4]; SMA UFR138, alone | [4]; SMA UFR239, alone | [5]; CKO UFR149
4 µg/mL: [2]; strain PRE UFR96, compound alone | [3]; KPN 160143, alone | [3]; KPN 190551, alone | [3]; KPN 200047, alone | [3]; KPN 200327, alone | [3]; KPN 260376, alone | [3]; KPN UFR216, alone | [3]; KPN UFR218, alone | [3]; KPN UFR220, alone | [3]; KPN UFR221, alone
8 µg/mL: [3]; KPN 131119, alone | [3]; KPN ARA, alone | [3]; KPN LIB, alone | [3]; KPN UFR23, alone | [3]; KPN UFR25, alone | [3]; KPN UFR43, alone | [3]; KPN UFR53, alone | [3]; KPN UFR77, alone | [3]; KPN UFR217, alone | [3]; KPN UFR222, alone | [3]; strain KPN UFR171, compound alone | [3]; strain KPN UFR172, compound alone | [4]; SMA UFR30, alone
> 32 µg/mL: [1]; MMO UFR240, alone | [1]; MMO UFR243, alone | [1]; MMO UFR244, alone | [1]; strain MMO UFR145, compound alone | [3]; KPN 260252, alone | [3]; KPN 270077, alone | [3]; KPN UFR33, alone | [3]; KPN UFR76, alone | [3]; KPN UFR78, alone | [3]; KPN UFR227O, alone | [3]; strain KPN UFR166, compound alone | [3]; strain KPN UFR167, compound alone | [3]; strain KPN UFR169, compound alone | [4]; SMA UFR135, alone | [4]; SMA UFR136, alone | [4]; SMA UFR142, alone | [4]; strain SMA UFR140, compound alone | [5]; CKO UFR150
32 µg/mL: [1]; MMO 200321, alone | [1]; MMO UFR144, alone | [1]; MMO UFR241, alone | [1]; MMO UFR242, alone | [1]; MMO UFR245, alone | [1]; MMO UFR246, alone | [2]; strain PRE UFR97, compound alone | [2]; strain PRE UFR236, compound alone | [3]; KPN 140513, alone | [3]; KPN 190128, alone | [3]; KPN 190270, alone | [3]; KPN 700603, alone | [3]; KPN UFR24, alone | [3]; KPN UFR46, alone | [3]; KPN UFR65, alone | [3]; KPN UFR66, alone | [3]; KPN UFR67, alone | [3]; KPN UFR79, alone | [3]; KPN UFR80, alone | [3]; KPN UFR215, alone | [3]; strain KPN 140347, compound alone | [3]; strain KPN UFR229O, compound alone | [4]; SMA UFR134, alone | [4]; SMA UFR137, alone | [4]; SMA UFR139, alone | [4]; SMA UFR141, alone | [4]; SMA UFR143, alone | [4]; strain SMA UFR238, compound alone | [5]; CKO ROU
